Source: patent US20130324489A1, “NEW ANTIFUNGAL COMPOSITIONS” (DSM IP ASSETS B.V., priority 2011, published 2013)
Several values for one entry are separate records, joined by “and”; a condition that tells them apart may be missing. Equal values may be shown once.

Columns and labels:
Botrytis cinerea [1] = experiment: Treatment of wounded apples inoculated with Botrytis cinerea (dip, mould growth); assay type: in vivo; conditions: 250 ppm natamycin, 20° C.
Protocol: Twelf fresh, organic apples were used per treatment. Each apple was wounded once using a cork borer according to the method described by de Lapeyre de Bellaire and Dubois (1987). Subsequently, each wound was inoculated with 10 μl of a Botrytis cinerea suspension containing 1×10^5 of spores/ml. […] In addition, the antifungal compositions comprised 3.1% (w/w) beeswax, 0.76% (w/w) glycerol, 0.66% (w/w) polyoxyethylene sorbitan monostearate (Tween 60), 0.03% (w/w) methylhydroxyethylcellulose (MHEC), 0.02% (w/w) xanthan gum, 0.02% (w/w) anti-foaming agent, 0.15% (w/w) citric acid and 0.01% (w/w) potassium sorbate. The pH of the compositions was 4. […] The treated apples were incubated in a closed box in the dark at 20° C.
During incubation, the treated apples were assessed on mould growth according to the two methods described in Example 8.

Botrytis cinerea [2] = experiment: In vitro antifungal activity, 96-well microtiter plates; assay type: cell-based; conditions: 1.25 ppm natamycin, 25° C.
Protocol: The following compositions were tested: […] After incubation of the microtiter plates at 25° C., the in vitro antifungal activity (%) of the individual active ingredients was assessed by calculating the reduction in mould growth observed in the presence of the active ingredient in comparison to the mould growth observed in the absence of the active ingredient. The expected antifungal activity (E in %) of the active ingredient combination was calculated according to the Colby equation (Colby, 1967): […] wherein X and Y are the observed antifungal activities (in %) of the individual active ingredients X and Y, respectively.

Penicillium italicum = experiment: Treatment of wounded mandarins inoculated with Penicillium italicum (dip, mould growth); assay type: in vivo; conditions: 500 ppm natamycin, 2000 ppm procymidone or both, 20° C.
Protocol: Ten fresh, organic mandarins were used per treatment. The peel of each mandarin was wounded once using a cork borer according to the method described by de Lapeyre de Bellaire and Dubois (1987). Subsequently, each wound was inoculated with 10 μl of a Penicillium italicum suspension containing 1×10^4 of spores/ml. […] In addition, the antifungal compositions comprised 3.1% (w/w) beeswax, 0.76% (w/w) glycerol, 0.66% (w/w) polyoxyethylene sorbitan monostearate (Tween 60), 0.03% (w/w) methylhydroxyethylcellulose (MHEC), 0.02% (w/w) xanthan gum, 0.02% (w/w) anti-foaming agent, 0.15% (w/w) citric acid and 0.01% (w/w) potassium sorbate. The pH of the compositions was 4. A composition without natamycin or procymidone was used as control.
The treated mandarins were incubated in a closed box in the dark at 20° C. and assessed on mould growth after 6, 8, 10, 13, 15 and 18 days of incubation. The antifungal activity (in %) of the individual and combined active ingredients was determined by calculating the reduction in mould growth observed on the mandarins treated with the antifungal composition in comparison to the mould growth on the mandarins treated with the control composition according to the Colby method (Colby, 1967) described in Example 3.

[3] = 250 ppm procymidone or both, day 6
[4] = 250 ppm procymidone or both, day 7-11
[5] = 250 ppm procymidone or both, day 12-13
[6] = 250 ppm procymidone or both, day 13
[7] = 250 ppm procymidone or both, day 14
[8] = 250 ppm procymidone or both, day 14-25
[9] = 250 ppm procymidone or both, day 15
[10] = 250 ppm procymidone or both, day 17
[11] = 250 ppm procymidone or both, day 18
[12] = 250 ppm procymidone or both, day 20
[13] = 250 ppm procymidone or both, day 22
[14] = 250 ppm procymidone or both, day 25
[15] = 500 ppm procymidone or both, day 4
[16] = 500 ppm procymidone or both, day 5-6
[17] = 500 ppm procymidone or both, day 7-11
[18] = 500 ppm procymidone or both, day 12
[19] = 500 ppm procymidone or both, day 13
[20] = 500 ppm procymidone or both, day 14
[21] = 500 ppm procymidone or both, day 14-25
[22] = 500 ppm procymidone or both, day 15
[23] = 500 ppm procymidone or both, day 17
[24] = 500 ppm procymidone or both, day 18
[25] = 500 ppm procymidone or both, day 20
[26] = 500 ppm procymidone or both, day 22
[27] = 500 ppm procymidone or both, day 25
[28] = 1.5 ppm vinclozolin, 1.25 ppm procymidone, alone or natamycin + one of them, day 3
[29] = 1.5 ppm vinclozolin, 1.25 ppm procymidone, alone or natamycin + one of them, day 6

Row | Compound | Number of moulded apples/total number of 12 apples (Botrytis cinerea [1]; [3]) | Number of moulded apples/total number of 12 apples (Botrytis cinerea [1]; [4]) | Number of moulded apples/total number of 12 apples (Botrytis cinerea [1]; [5]) | Observed antifungal activity O (%) (Botrytis cinerea [1]; [6]) | Observed antifungal activity O (%) (Botrytis cinerea [1]; [7]) | Number of moulded apples/total number of 12 apples (Botrytis cinerea [1]; [8]) | Observed antifungal activity O (%) (Botrytis cinerea [1]; [9]) | Observed antifungal activity O (%) (Botrytis cinerea [1]; [10]) | Observed antifungal activity O (%) (Botrytis cinerea [1]; [11]) | Observed antifungal activity O (%) (Botrytis cinerea [1]; [12]) | Observed antifungal activity O (%) (Botrytis cinerea [1]; [13]) | Observed antifungal activity O (%) (Botrytis cinerea [1]; [14]) | Number of moulded apples/total number of 12 apples (Botrytis cinerea [1]; [15]) | Number of moulded apples/total number of 12 apples (Botrytis cinerea [1]; [16]) | Number of moulded apples/total number of 12 apples (Botrytis cinerea [1]; [17]) | Number of moulded apples/total number of 12 apples (Botrytis cinerea [1]; [18]) | Number of moulded apples/total number of 12 apples (Botrytis cinerea [1]; [19]) | Observed antifungal activity O (%) (Botrytis cinerea [1]; [19]) | Observed antifungal activity O (%) (Botrytis cinerea [1]; [20]) | Number of moulded apples/total number of 12 apples (Botrytis cinerea [1]; [21]) | further results
1 | CC12CC1(C)C(=O)N(c1cc(Cl)cc(Cl)c1)C2=O (centres unmarked) [Procymidone, procymidone] | 7 and 7/12 | 8 and 8/12 | 12/12 | 65 | 55 | 12/12 | 50 | 44 | 37 | 31 | 26 | 17 | 8 and 8/12 | 8 and 8/12 | 8 and 8/12 | 10 and 10/12 | 11 and 11/12 | 75 | 71 | 12/12 | Observed antifungal activity O (%) (Botrytis cinerea [1]; [22]): 67%; Observed antifungal activity O (%) (Botrytis cinerea [1]; [23]): 57%; Observed antifungal activity O (%) (Botrytis cinerea [1]; [24]): 51%; Observed antifungal activity O (%) (Botrytis cinerea [1]; [25]): 45%; Observed antifungal activity O (%) (Botrytis cinerea [1]; [26]): 38%; Observed antifungal activity O (%) (Botrytis cinerea [1]; [27]): 26%; Observed antifungal activity O (%) (Botrytis cinerea [2]; [28]): 0%; Observed antifungal activity O (%) (Botrytis cinerea [2]; [29]): 0%; Observed antifungal activity O (%) (Penicillium italicum; day 6): 0%; Observed antifungal activity O (%) (Penicillium italicum; day 8): 0%; Observed antifungal activity O (%) (Penicillium italicum; day 10): 0%; Observed antifungal activity O (%) (Penicillium italicum; day 13): 0%; Observed antifungal activity O (%) (Penicillium italicum; day 15): 0%; Observed antifungal activity O (%) (Penicillium italicum; day 18): 0%
2 | C[C@@H]1C/C=C/C=C/C=C/C=C/[C@H](O[C@@H]2O[C@H](C)[C@@H](O)[C@H](N)[C@@H]2O)C[C@@H]2O[C@](O)(C[C@@H](O)C[C@H]3O[C@@H]3/C=C/C(=O)O1)C[C@H](O)[C@H]2C(=O)O [Natamycin, natamycin] | 12/12 | 12/12 | 12/12 | 31 | 26 | 12/12 | 23 | 18 | 18 | 16 | 14 | 14 | 11 and 11/12 | 12 and 12/12 | 12 and 12/12 | 12/12 | 12/12 | 31 | 26 | 12/12 | Observed antifungal activity O (%) (Botrytis cinerea [1]; [22]): 23%; Observed antifungal activity O (%) (Botrytis cinerea [1]; [23]): 18%; Observed antifungal activity O (%) (Botrytis cinerea [1]; [24]): 18%; Observed antifungal activity O (%) (Botrytis cinerea [1]; [25]): 16%; Observed antifungal activity O (%) (Botrytis cinerea [1]; [26]): 14%; Observed antifungal activity O (%) (Botrytis cinerea [1]; [27]): 14%; Observed antifungal activity O (%) (Botrytis cinerea [2]; [28]): 0%; Observed antifungal activity O (%) (Botrytis cinerea [2]; [29]): 0%; Observed antifungal activity O (%) (Botrytis cinerea [2]; 3.0 ppm iprodione or both, day 5): 50%; Observed antifungal activity O (%) (Botrytis cinerea [2]; 7.0 ppm vinclozolin, 2.0 ppm procymidone, alone or natamycin + one of them, day 10): 0%; Observed antifungal activity O (%) (Botrytis cinerea [2]; 8.0 ppm iprodione or both, day 12): 0%; Observed antifungal activity O (%) (Penicillium italicum; day 6): 82%; Observed antifungal activity O (%) (Penicillium italicum; day 8): 73%; Observed antifungal activity O (%) (Penicillium italicum; day 10): 66%; Observed antifungal activity O (%) (Penicillium italicum; day 13): 59%; Observed antifungal activity O (%) (Penicillium italicum; day 15): 55%; Observed antifungal activity O (%) (Penicillium italicum; day 18): 44%
